Assay results reported in ChEMBL document CHEMBL6096714, “Advancements in Neurotechnology: Pioneering Brain Monitoring and Stimulation for Enhanced Treatment and Understanding” (ACS Med Chem Lett, 2025).
The source made the active and inactive calls. The calls are words filed in the database; no cut-off is given here.

tested on: Cortical neurone; experiment: Neuroplasticity effect in female Wistar rat Cortical neuron assessed as increase in neurite number at 10 uM incubated for […]; format: functional, cell-based

| Compound | Activity |
| --- | --- |
| Fc1ccc(Oc2ccc3c4c([nH]c3c2)CCNCC4)cc1 | Active |
| CN1CCc2[nH]c3cc(Oc4ccccc4)ccc3c2CC1 | Active |
| CN1CCc2[nH]c3cc(OCc4ccccc4)ccc3c2CC1 | Active |
| c1ccc(COc2ccc3c4c([nH]c3c2)CCNCC4)cc1 | Active |
| Cn1c2c(c3ccc(OCc4ccccc4)cc31)CCNCC2 | inactive |
| CN1CCc2[nH]c3cc(OCc4ccc(F)cc4)ccc3c2CC1 | Active |

tested on: Cortical neurone; experiment: Neuroplasticity effect in female Wistar rat Cortical neuron assessed as increase in neurite branching at 10 uM incubated for […]; format: functional, cell-based

| Compound | Activity |
| --- | --- |
| Fc1ccc(Oc2ccc3c4c([nH]c3c2)CCNCC4)cc1 | Active |
| CN1CCc2[nH]c3cc(Oc4ccccc4)ccc3c2CC1 | Active |
| CN1CCc2[nH]c3cc(OCc4ccccc4)ccc3c2CC1 | inactive |
| c1ccc(COc2ccc3c4c([nH]c3c2)CCNCC4)cc1 | Active |
| Cn1c2c(c3ccc(OCc4ccccc4)cc31)CCNCC2 | inactive |
| CN1CCc2[nH]c3cc(OCc4ccc(F)cc4)ccc3c2CC1 | Active |

tested on: Cortical neurone; experiment: Neuroplasticity effect in female Wistar rat Cortical neuron assessed as increase in neurite length at 10 uM incubated for […]; format: functional, cell-based

| Compound | Activity |
| --- | --- |
| Fc1ccc(Oc2ccc3c4c([nH]c3c2)CCNCC4)cc1 | Active |
| CN1CCc2[nH]c3cc(Oc4ccccc4)ccc3c2CC1 | Active |
| CN1CCc2[nH]c3cc(OCc4ccccc4)ccc3c2CC1 | Active |
| c1ccc(COc2ccc3c4c([nH]c3c2)CCNCC4)cc1 | Active |
| Cn1c2c(c3ccc(OCc4ccccc4)cc31)CCNCC2 | inactive |
| CN1CCc2[nH]c3cc(OCc4ccc(F)cc4)ccc3c2CC1 | Active |
